{
  "source": "PubChem BioAssay AID2060494",
  "about": "(Molecular Pharmacology Branch, DTP, NCI, 2025)",
  "tested_on": "435261-313-R-J1-PDC complex spheroid viability",
  "assay": "Anticancer human tumor 435261-313-R-J1-PDC patient-derived colon adenocarcinoma cell line growth inhibition [GQUAD]",
  "conditions": "for pIC50: curve of first compound; for viability, T/C: stronger effect = lower value",
  "from_the_text": "DNA G-quadruplex Stabilizer Agents in Combinations in Complex Spheroids\nA high-throughput screen of multi-cell type tumor spheroids was designed to identify active combinations of DNA G-quadruplex stabilizer agents and targeted small molecules. Complex spheroids include a stromal component modeled by human endothelial cells (HUVEC) and fibroblasts modeled by human mesenchymal stem cells (MSCs). The concentration ranges selected for each drug and investigational agent were based upon clinically achievable concentrations if the clinical Cmax of the agent was known.\nCompounds. The drugs and investigational agents: pidnarulex (CX-5461; NSC782164), APTO-253 (NSC789042), BRACO-19 (NSC847499), peposertib (NSC802822), ceralasertib (NSC780249), elimusertib (NSC800525), camonsertib (NSC841442), AZD-1390 (NSC803789), olaparib (NSC753686), talazoparib (NSC767125), ART-558 (NSC835418), sotorasib (NSC818433), MRTX-1133 (NSC836407), SN-38 (NSC673596), topotecan (NSC609699), etoposide (NSC141540), doxorubicin (NSC123127), gemcitabine (NSC613327), 5-fluorouracil (NSC19893), paclitaxel (NSC125973), vemurafenib (NSC761431), panobinostat (NSC761190), R-306465 (JNJ-16241199; NSC773264), adavosertib (NSC754352), TP-3654 (NSC805149), carboplatin (NSC241240), KSQ-4279 (NSC840948), and staurosporine (NSC755774) were obtained from the National Cancer Institute (NCI) Developmental Therapeutics Program Chemical Repository (34). The FDA-approved anticancer drug set is available from the NCI Developmental Therapeutics Program. […] The stock solutions were prepared in dimethyl sulfoxide (DMSO, Sigma-Aldrich, St. Louis, MO, cat. D2650) at 800-fold the tested concentration and stored at -70 degrees C prior to their use. All drugs and investigational agents were tested over a range starting from a high concentration at or near the clinical Cmax and decreasing in half-log increments. If the clinical Cmax for an agent had not been determined, the highest concentration tested was 10 microM.\n2.3 Cell Culture. All cells were maintained in an incubator at 37 degrees C and 5% CO2 with 95% humidity. The PDC lines were cultured according to standard operating procedures established by the NCI PDMR. All PDCs were thawed and cultured in Matrigel-coated flasks prepared with a working solution of 1X Ham's F-12 nutrient mix, without supplementation (Invitrogen, cat. 11765054), 100 U/mL penicillin-streptomycin (Invitrogen, cat. 15140122), and 2.5% Matrigel (Corning Inc., cat. 354248) for the first three passages. The 857933-349-R-J2-PDC line was cultured in 6C/Colon 1B media, which includes advanced DMEM/F-12 (Thermo Fisher Scientific, cat. 12634028), 10 mM HEPES (Thermo Fisher Scientific, cat. 15630080), 1X GlutaMAX supplement (Thermo Fisher Scientific, cat. 35050061), 0.1 mg/mL primocin (InvivoGen, cat. ant-pm-2), 10% defined fetal bovine serum, heat inactivated (HyClone Laboratories Inc., cat. SH30070.03HI), 50% L-WRN conditioned media (ATCC, cat. CRL-3276), 1.25 mM N-Acetyl-L-cysteine (Sigma-Aldrich, cat. A9165), 10 mM nicotinamide (Sigma-Aldrich, cat. N0636), 1X B-27 supplement (Thermo Fisher Scientific, cat. 17504044), 1X N-2 supplement (Thermo Fisher Scientific, cat. 17502048), 10 microM Y-27632 dihydrochloride (Tocris Bioscience, cat. 1254), and 50 ng/mL human EGF recombinant protein (Thermo Fisher Scientific, cat. PHG0311). The 485176-168-R4-J1-PDC line was cultured in Panc media, which includes all 6C/Colon 1B media components plus 100 ng/mL human FGF-10 (Thermo Fisher Scientific, cat. 100-26), 500 nM SB-431542 (Selleckchem, cat. S1067), and gastrin (Tocris, cat. 3006).\n[…]",
  "note": "pIC50: −log10 of the molar value.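 Also: spheroids exposed to the agents for seven days before readout.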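 For viability, T/C in this document: percent of vehicle control viability with DMSO wells as 100%.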",
  "data": [
    {"smiles": "COc1ccc([C@@H](O)c2cc(-c3ncnc4cc(N5CCOCC5)ccc34)c(F)cc2Cl)nn1", "note": "+ Cc1cnc(CNC(=O)c2c(=O)c3ccc(N4CCCN(C)CC4)nc3n3c2sc2ccccc23)cn1", "values": [
      {"measurement": "pIC50", "setting": "second compound 0.0316 µM", "result": 6.20},
      {"measurement": "pIC50", "setting": "second compound 0.1 µM", "result": 6.41},
      {"measurement": "pIC50", "setting": "second compound 0.316 µM", "result": 6.80},
      {"measurement": "pIC50", "setting": "second compound 1 µM", "result": "> 7.50"},
      {"measurement": "pIC50", "setting": "second compound 3.16 µM", "result": "> 7.50"},
      {"measurement": "pIC50", "setting": "second compound 10 µM", "result": "> 7.50"},
      {"measurement": "viability, T/C", "setting": "second compound 0.0316 µM, first compound 0.0316 µM", "result": 59.5, "unit": "%"},
      {"measurement": "viability, T/C", "setting": "second compound 0.0316 µM, first compound 0.1 µM", "result": 67.4, "unit": "%"},
      {"measurement": "viability, T/C", "setting": "second compound 0.0316 µM, first compound 0.316 µM", "result": 71.8, "unit": "%"},
      {"measurement": "viability, T/C", "setting": "second compound 0.0316 µM, first compound 1 µM", "result": 39.2, "unit": "%"},
      {"measurement": "viability, T/C", "setting": "second compound 0.0316 µM, first compound 3.16 µM", "result": 27.8, "unit": "%"},
      {"measurement": "viability, T/C", "setting": "second compound 0.0316 µM, first compound 10 µM", "result": 20.3, "unit": "%"},
      {"measurement": "viability, T/C", "setting": "second compound 0.1 µM, first compound 0.0316 µM", "result": 49.8, "unit": "%"},
      {"measurement": "viability, T/C", "setting": "second compound 0.1 µM, first compound 0.1 µM", "result": 65, "unit": "%"},
      {"measurement": "viability, T/C", "setting": "second compound 0.1 µM, first compound 0.316 µM", "result": 48.9, "unit": "%"},
      {"measurement": "viability, T/C", "setting": "second compound 0.1 µM, first compound 1 µM", "result": 41.4, "unit": "%"},
      {"measurement": "viability, T/C", "setting": "second compound 0.1 µM, first compound 3.16 µM", "result": 26.3, "unit": "%"},
      {"measurement": "viability, T/C", "setting": "second compound 0.1 µM, first compound 10 µM", "result": 16.8, "unit": "%"},
      {"measurement": "viability, T/C", "setting": "second compound 0.316 µM, first compound 0.0316 µM", "result": 47.6, "unit": "%"},
      {"measurement": "viability, T/C", "setting": "second compound 0.316 µM, first compound 0.1 µM", "result": 60.9, "unit": "%"},
      {"measurement": "viability, T/C", "setting": "second compound 0.316 µM, first compound 0.316 µM", "result": 44.6, "unit": "%"},
      {"measurement": "viability, T/C", "setting": "second compound 0.316 µM, first compound 1 µM", "result": 34.8, "unit": "%"},
      {"measurement": "viability, T/C", "setting": "second compound 0.316 µM, first compound 3.16 µM", "result": 25.6, "unit": "%"},
      {"measurement": "viability, T/C", "setting": "second compound 0.316 µM, first compound 10 µM", "result": 13.4, "unit": "%"},
      {"measurement": "viability, T/C", "setting": "second compound 1 µM, first compound 0.0316 µM", "result": 32.3, "unit": "%"},
      {"measurement": "viability, T/C", "setting": "second compound 1 µM, first compound 0.1 µM", "result": 42.6, "unit": "%"},
      {"measurement": "viability, T/C", "setting": "second compound 1 µM, first compound 0.316 µM", "result": 34.8, "unit": "%"},
      {"measurement": "viability, T/C", "setting": "second compound 1 µM, first compound 1 µM", "result": 28.4, "unit": "%"},
      {"measurement": "viability, T/C", "setting": "second compound 1 µM, first compound 3.16 µM", "result": 17.2, "unit": "%"},
      {"measurement": "viability, T/C", "setting": "second compound 1 µM, first compound 10 µM", "result": 5.89, "unit": "%"},
      {"measurement": "viability, T/C", "setting": "second compound 3.16 µM, first compound 0.0316 µM", "result": 5.04, "unit": "%"},
      {"measurement": "viability, T/C", "setting": "second compound 3.16 µM, first compound 0.1 µM", "result": 14.9, "unit": "%"},
      {"measurement": "viability, T/C", "setting": "second compound 3.16 µM, first compound 0.316 µM", "result": 16.5, "unit": "%"},
      {"measurement": "viability, T/C", "setting": "second compound 3.16 µM, first compound 1 µM", "result": 0.16, "unit": "%"},
      {"measurement": "viability, T/C", "setting": "second compound 3.16 µM, first compound 3.16 µM", "result": 0.14, "unit": "%"},
      {"measurement": "viability, T/C", "setting": "second compound 3.16 µM, first compound 10 µM", "result": 0.29, "unit": "%"},
      {"measurement": "viability, T/C", "setting": "second compound 10 µM, first compound 0.0316 µM", "result": 0.11, "unit": "%"},
      {"measurement": "viability, T/C", "setting": "second compound 10 µM, first compound 0.1 µM", "result": 0.16, "unit": "%"},
      {"measurement": "viability, T/C", "setting": "second compound 10 µM, first compound 0.316 µM", "result": 0.16, "unit": "%"},
      {"measurement": "viability, T/C", "setting": "second compound 10 µM, first compound 1 µM", "result": 0.2, "unit": "%"},
      {"measurement": "viability, T/C", "setting": "second compound 10 µM, first compound 3.16 µM", "result": 0.17, "unit": "%"},
      {"measurement": "viability, T/C", "setting": "second compound 10 µM, first compound 10 µM", "result": 0.15, "unit": "%"}
    ]}
  ]
}
